# “Also recorded” adds a separate entry of the source.
# Key:
# [1] = system: Aspergillus; conditions: 0.02%; cited from earlier work
# [2] = system: Adenovirus Type-8; experiment: Viral Suspension Assay, Adenovirus Type-8; type: cell-based
# Method: (§1) The Viral Suspension Assay was used to evaluate the antiviral properties of Alexidine against Adenovirus Type-4, Adenovirus Type-8 and Adenovirus Type-19 and Cytomegalovirus when exposed in suspension for 1, 2, 5, and 10 minutes. The presence of virus (infectivity) was determined by monitoring the virus specific cytopathic effect (CPE) on an appropriate indicator cell line, rabbit kidney. Results are reported as Percent (%) Reduction in virus titer as compared to the corresponding virus control titer (Table 1). The titer of the virus controls were 7.5 log10 following the one minute exposure time; 7.0 log10 following the two minute exposure time; and 7.75 log10 following both the five and ten minute exposure times.
# [3] = system: Herpes simplex virus type 1; experiment: Viral Suspension Assay, HSV-1; type: cell-based; conditions: 30 ppm and 99 ppm
# Method: as §1, with “Herpes simplex virus type 1” for “Adenovirus Type-4, Adenovirus Type-8 and Adenovirus Type-19 and Cytomegalovirus”
# [4] = system: Adenovirus Type-19; experiment: Viral Suspension Assay, Adenovirus Type-19; type: cell-based
# Method: as §1
# [5] = system: Adenovirus Type-4; experiment: Viral Suspension Assay, Adenovirus Type-4; type: cell-based
# Method: as §1
# [6] = system: Cytomegalovirus; experiment: Viral Suspension Assay, Cytomegalovirus; type: cell-based; conditions: 30 ppm and 99 ppm
# Method: as §1
Compound,Effectiveness in experimental Aspergillus keratitis (in words) [1],Effectiveness against Adenovirus Type-8 (in words) ([2]; 30 ppm and 99 ppm),"Percent Reduction (%) ([2]; Alexidine 30 ppm, 10 minutes)","Percent Reduction (%) ([2]; Alexidine 99 ppm, 5 minutes)","Percent Reduction (%) ([2]; Alexidine 99 ppm, 10 minutes)",Effectiveness against HSV-1 (in words) [3],"Percent Reduction (%) ([4]; Alexidine 30 ppm and 99 ppm, 1, 2, 5 and 10 minutes)",Effectiveness against Adenovirus Type-19 (in words) ([4]; particular strain tested),Effectiveness against Adenovirus Type-4 (in words) ([5]; 30 ppm and 99 ppm),"Percent Reduction (%) ([5]; Alexidine 30 ppm, 1 minute)","Percent Reduction (%) ([5]; Alexidine 30 ppm, 10 minutes)","Percent Reduction (%) ([5]; Alexidine 99 ppm, 1 minute)","Percent Reduction (%) ([5]; Alexidine 99 ppm, 5 minutes)","Percent Reduction (%) ([5]; Alexidine 99 ppm, 10 minutes)",Effectiveness against Cytomegalovirus (in words) [6]
polyhexamethylene biguanide,moderately effective,–,–,–,–,–,–,–,–,–,–,–,–,–,–
"CCCCC(CC)CNC(=N)NC(=N)NCCCCCCNC(=N)NC(=N)NCC(CC)CCCC (stereo not drawn) [Alexidine, 1,1′-hexamethylene-bis[5-(2-ethylhexyl)biguanide]]",–,somewhat effective,90.0%,90.0%,90.0%,effective agents; also recorded: potent antimicrobial agent,No reduction,did not appear to be effective,somewhat effective,43.8%,68.4%,68.4%,43.8%,68.4%,somewhat effective

# Source: US20070142478A1, “COMBINATION ANTIMICROBIAL COMPOSITION AND METHOD OF USE” (priority 2005, published 2007)
